According to PubChem BioAssay AID1963427 (Molecular Pharmacology Branch, DTP, NCI, 2024):
pIC50: −log10 of the molar value.

System: 317291-083-R-J1-PDC complex spheroid growth
Assay: Anticancer human tumor 317291-083-R-J1-PDC patient-derived soft tissue sarcoma cell line growth inhibition [Asc]
Details: for pIC50: curve of first compound; for viability, T/C: stronger effect = lower value; active means viability on the fitted dose curve at most 10% of control; inactive means the rest
In short: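 Concentration series start at each agent's clinical Cmax, or at 10 microM when none is established, and drop in half-log steps; agents are applied alone or together to complex spheroids built with HUVEC and hMSC.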

[1] = second compound 0.0316 µM, first compound 0.0316 µM
[2] = second compound 0.0316 µM, first compound 0.1 µM
[3] = second compound 0.0316 µM, first compound 0.316 µM
[4] = second compound 0.0316 µM, first compound 1 µM
[5] = second compound 0.1 µM, first compound 0.0316 µM
[6] = second compound 0.1 µM, first compound 0.1 µM
[7] = second compound 0.1 µM, first compound 0.316 µM
[8] = second compound 0.1 µM, first compound 1 µM
[9] = second compound 0.316 µM, first compound 0.0316 µM
[10] = second compound 0.316 µM, first compound 0.1 µM
[11] = second compound 0.316 µM, first compound 0.316 µM
[12] = second compound 0.316 µM, first compound 1 µM
[13] = second compound 1 µM, first compound 0.0316 µM
[14] = second compound 1 µM, first compound 0.1 µM
[15] = second compound 1 µM, first compound 0.316 µM
[16] = second compound 1 µM, first compound 1 µM
[17] = second compound 3.16 µM, first compound 0.0316 µM
[18] = second compound 3.16 µM, first compound 0.1 µM
[19] = second compound 3.16 µM, first compound 0.316 µM
[20] = second compound 3.16 µM, first compound 1 µM
[21] = second compound 10 µM, first compound 0.0316 µM
[22] = second compound 10 µM, first compound 0.1 µM
[23] = second compound 10 µM, first compound 0.316 µM
[24] = second compound 10 µM, first compound 1 µM
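Further: compound exposure lasted seven days after spheroids formed for three days.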
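Wherever viability, T/C is given: 100% = DMSO vehicle control wells.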

C=CC(=O)N1CCN(c2nc(=O)n(-c3c(C)ccnc3C(C)C)c3nc(-c4c(O)cccc4F)c(F)cc23)C(C)C1 (centres undefined) + Cc1c(S(C)(=O)=O)c(-c2cc(F)cc(N3CCN(c4ccc(NS(=O)(=O)c5ccc(NC(CCN6CCC(C(=O)OCCCP(=O)(O)O)CC6)CSc6ccccc6)c(S(=O)(=O)C(F)(F)F)c5)cc4)CC3)c2)c(-c2ccc(Cl)cc2)n1C(C)C
5.02: pIC50 (second compound 10 µM)
inactive: viability, T/C [1] 108% | viability, T/C [2] 86.8% | viability, T/C [3] 108% | viability, T/C [4] 98.3% | viability, T/C (second compound 0.0316 µM, first compound 3.16 µM) 98.3% | viability, T/C (second compound 0.0316 µM, first compound 10 µM) 66.1% | viability, T/C [5] 84.4% | viability, T/C [6] 97.7% | viability, T/C [7] 86.1% | viability, T/C [8] 86.5% | viability, T/C (second compound 0.1 µM, first compound 3.16 µM) 100% | viability, T/C (second compound 0.1 µM, first compound 10 µM) 60.1% | viability, T/C [9] 91% | viability, T/C [10] 102% | viability, T/C [11] 85.3% | viability, T/C [12] 90.6% | viability, T/C (second compound 0.316 µM, first compound 3.16 µM) 83.9% | viability, T/C (second compound 0.316 µM, first compound 10 µM) 59.7% | viability, T/C [13] 81.5% | viability, T/C [14] 84.3% | viability, T/C [15] 96.2% | viability, T/C [16] 80.2% | viability, T/C (second compound 1 µM, first compound 3.16 µM) 81.7% | viability, T/C (second compound 1 µM, first compound 10 µM) 51.7% | viability, T/C [17] 82.4% | viability, T/C [18] 70.7% | viability, T/C [19] 87.8% | viability, T/C [20] 74.7% | viability, T/C (second compound 3.16 µM, first compound 3.16 µM) 79.5% | viability, T/C (second compound 3.16 µM, first compound 10 µM) 43.2% | viability, T/C [21] 87.1% | viability, T/C [22] 90.6% | viability, T/C [23] 93.2% | viability, T/C [24] 88.6% | viability, T/C (second compound 10 µM, first compound 3.16 µM) 96.6% | viability, T/C (second compound 10 µM, first compound 10 µM) 47.9%
5.09: pIC50 (second compound 3.16 µM)
< 5.00: pIC50 (second compound 0.0316 µM) | pIC50 (second compound 0.1 µM) | pIC50 (second compound 0.316 µM) | pIC50 (second compound 1 µM)

COc1c(OCCCN2CCOCC2)ccc2c3n(c(=NC(=O)c4cnc(N)nc4)nc12)CCN3 + Cc1c(S(C)(=O)=O)c(-c2cc(F)cc(N3CCN(c4ccc(NS(=O)(=O)c5ccc(NC(CCN6CCC(C(=O)OCCCP(=O)(O)O)CC6)CSc6ccccc6)c(S(=O)(=O)C(F)(F)F)c5)cc4)CC3)c2)c(-c2ccc(Cl)cc2)n1C(C)C
6.98: pIC50 (second compound 0.0316 µM)
inactive: viability, T/C (second compound 0.0316 µM, first compound 0.00316 µM) 116% | viability, T/C (second compound 0.0316 µM, first compound 0.01 µM) 116% | viability, T/C [1] 78% | viability, T/C [2] 52.9% | viability, T/C [3] 27% | viability, T/C [4] 13% | viability, T/C (second compound 0.1 µM, first compound 0.00316 µM) 106% | viability, T/C (second compound 0.1 µM, first compound 0.01 µM) 76.6% | viability, T/C [5] 62.5% | viability, T/C [6] 54.7% | viability, T/C [7] 28.1% | viability, T/C [8] 13.5% | viability, T/C (second compound 0.316 µM, first compound 0.00316 µM) 91.3% | viability, T/C (second compound 0.316 µM, first compound 0.01 µM) 85.5% | viability, T/C [9] 69.7% | viability, T/C [10] 44.7% | viability, T/C [11] 30.1% | viability, T/C [12] 11.7% | viability, T/C (second compound 1 µM, first compound 0.00316 µM) 86.2% | viability, T/C (second compound 1 µM, first compound 0.01 µM) 88% | viability, T/C [13] 63.2% | viability, T/C [14] 44.8% | viability, T/C [15] 28.2% | viability, T/C [16] 12.1% | viability, T/C (second compound 3.16 µM, first compound 0.00316 µM) 65.6% | viability, T/C (second compound 3.16 µM, first compound 0.01 µM) 54.8% | viability, T/C [17] 60.9% | viability, T/C [18] 43.7% | viability, T/C [19] 21.3% | viability, T/C (second compound 10 µM, first compound 0.00316 µM) 100% | viability, T/C (second compound 10 µM, first compound 0.01 µM) 90.2% | viability, T/C [21] 70.7% | viability, T/C [22] 54.2% | viability, T/C [23] 19.2%
7.02: pIC50 (second compound 10 µM)
7.20: pIC50 (second compound 3.16 µM)
7.05: pIC50 (second compound 0.316 µM)
7.06: pIC50 (second compound 0.1 µM)
active: viability, T/C [20] 9.02% | viability, T/C [24] 7.2%
7.11: pIC50 (second compound 1 µM)
